ChEMBL document CHEMBL3414511, “Synthesis of a novel class of substituted benzothiophene or benzofuran derivatives as BMP-2 up-regulators and evaluation of the BMP-2-up-regulating effects in vitro and the effects on glucocorticoid-induced osteoporosis in rats” (Eur J Med Chem, 2015)
The source made the active and inactive calls. The rule behind the calls is not given here.

How the values were obtained:
[1] = Upregulation of BMP-2 expression in mouse MC3T3-E1 cells at 0.4 uM after 24 hrs by luciferase reporter gene assay relative to control; assay type: functional, cell-based
[2] = test system: Rattus norvegicus; experiment: Toxicity in glucocorticoid-induced Wistar rat osteoporosis model assessed as lymph level at 2.5 mg/kg/day, im administered twice each week for 8 weeks (reference value: 50.35 +/- 12.96%); assay type: organism-based; set-up: route intramuscular; details: in vivo, 1344 h
[3] = test system: Rattus norvegicus; experiment: Toxicity in glucocorticoid-induced Wistar rat osteoporosis model assessed as white blood cells at 2.5 mg/kg/day, im administered twice each week for 8 weeks (reference value: 6.28 +/- 2.78 x 10^9/L); assay type: organism-based; set-up: route intramuscular; details: in vivo, 1344 h
[4] = test system: Rattus norvegicus; experiment: Antiosteoporotic activity in glucocorticoid-induced Wistar rat osteoporosis model assessed as trabecula formation surface at 2.5 mg/kg/day, im administered twice each week for 8 weeks by fluorescence assay (reference value: 7.82 +/- 2.46%); assay type: functional; details: route intramuscular
[5] = test system: Rattus norvegicus; experiment: Toxicity in glucocorticoid-induced Wistar rat osteoporosis model assessed as neutrophilic granulocytes level at 2.5 mg/kg/day, im administered twice each week for 8 weeks (reference value: 31.95 +/- 8.33%); assay type: organism-based; set-up: route intramuscular; details: in vivo, 1344 h
[6] = test system: Rattus norvegicus; experiment: Toxicity in glucocorticoid-induced Wistar rat osteoporosis model assessed as aspartate transaminase level at 2.5 mg/kg/day, im administered twice each week for 8 weeks (reference value: 177.55 +/- 116.98 U/L); assay type: organism-based; set-up: route intramuscular; details: in vivo, 1344 h
[7] = test system: Rattus norvegicus; experiment: Toxicity in glucocorticoid-induced Wistar rat osteoporosis model assessed as alanine transaminase level at 2.5 mg/kg/day, im administered twice each week for 8 weeks (reference value: 43.73 +/- 36.21 U/L); assay type: organism-based; set-up: route intramuscular; details: in vivo, 1344 h
[8] = test system: Rattus norvegicus; experiment: Antiosteoporotic activity in glucocorticoid-induced Wistar rat osteoporosis model assessed as appearance of turbulent and sparse rarefection of trabecula at 2.5 mg/kg/day, im administered twice each week for 8 weeks by toluidine blue staining-based light microscopic analysis; assay type: functional, organism-based
[9] = test system: Rattus norvegicus; experiment: Antiosteoporotic activity in glucocorticoid-induced Wistar rat osteoporosis model assessed as trabecular bone volume at 2.5 mg/kg/day, im administered twice each week for 8 weeks by fluorescence assay (reference value: 33.09 +/- 5.15%); assay type: functional, Trabecula; details: route intramuscular
[10] = test system: Rattus norvegicus; experiment: Toxicity in glucocorticoid-induced Wistar rat osteoporosis model assessed as triglycerides level at 2.5 mg/kg/day, im administered twice each week for 8 weeks (reference value: 1.13 +/- 0.69 mmol/L); assay type: organism-based; set-up: route intramuscular; details: in vivo, 1344 h
[11] = test system: Rattus norvegicus; experiment: Antiosteoporotic activity in glucocorticoid-induced Wistar rat osteoporosis model assessed as trabecula resorption surface at 2.5 mg/kg/day, im administered twice each week for 8 weeks by fluorescence assay (reference value: 7.22 +/- 2.04%); assay type: functional; details: route intramuscular
[12] = test system: Rattus norvegicus; experiment: Antiosteoporotic activity in glucocorticoid-induced Wistar rat osteoporosis model assessed as mineral apposition rate at 2.5 mg/kg/day, im administered twice each week for 8 weeks by fluorescence assay (reference value: 1.06 +/- 0.27 micrometer/day); assay type: functional; details: route intramuscular
[13] = test system: Rattus norvegicus; experiment: Toxicity in glucocorticoid-induced Wistar rat osteoporosis model assessed as effect on blood urea nitrogen level at 30 mg/kg/day, po administered six times a week for 3 months; assay type: organism-based; set-up: route oral; details: in vivo
[14] = test system: Rattus norvegicus; experiment: Antiosteoporotic activity in glucocorticoid-induced Wistar rat osteoporosis model assessed as increase in trabecula number at 30 mg/kg/day, po administered six times a week for 3 months by toluidine blue staining-based light microscopic analysis relative to dexamethasone; assay type: functional, organism-based
[15] = test system: Rattus norvegicus; experiment: Toxicity in glucocorticoid-induced Wistar rat osteoporosis model assessed as effect on platelets at 30 mg/kg/day, po administered six times a week for 3 months; assay type: organism-based; set-up: route oral; details: in vivo
[16] = test system: Rattus norvegicus; experiment: Toxicity in glucocorticoid-induced Wistar rat osteoporosis model assessed as alanine transaminase level at 30 mg/kg/day, po administered six times a week for 3 months (reference value: 43.73 +/- 36.21 U/L); assay type: organism-based; set-up: route oral; details: in vivo
[17] = test system: Rattus norvegicus; experiment: Antiosteoporotic activity in glucocorticoid-induced Wistar rat osteoporosis model assessed as mineral apposition rate at 30 mg/kg/day, po administered six times a week for 3 months by fluorescence assay (reference value: 1.06 +/- 0.27 micrometer/day); assay type: functional
[18] = test system: Rattus norvegicus; experiment: Toxicity in glucocorticoid-induced Wistar rat osteoporosis model assessed as effect on hemoglobin at 30 mg/kg/day, po administered six times a week for 3 months; assay type: organism-based; set-up: route oral; details: in vivo
[19] = test system: Rattus norvegicus; experiment: Toxicity in glucocorticoid-induced Wistar rat osteoporosis model assessed as effect on albumin level at 30 mg/kg/day, po administered six times a week for 3 months; assay type: organism-based; set-up: route oral; details: in vivo
[20] = test system: Rattus norvegicus; experiment: Antiosteoporotic activity in glucocorticoid-induced Wistar rat osteoporosis model assessed as trabecula resorption surface at 30 mg/kg/day, po administered six times a week for 3 months by fluorescence assay (reference value: 7.22 +/- 2.04%); assay type: functional
[21] = Upregulation of BMP-2 expression in mouse MC3T3-E1 cells at 4 uM after 24 hrs by luciferase reporter gene assay relative to control; assay type: functional, cell-based
[22] = test system: Mus musculus; experiment: Acute toxicity in Kunming mouse assessed as shiny fur at 700 mg/kg, po administered for 3 days measured during compound dosing and following 14 days; assay type: organism-based; set-up: dose 700 mg/kg, route oral; details: in vivo, 336 h
[23] = test system: Rattus norvegicus; experiment: Antiosteoporotic activity in glucocorticoid-induced Wistar rat osteoporosis model assessed as trabecular bone volume at 30 mg/kg/day, po administered six times a week for 3 months by fluorescence assay (reference value: 33.09 +/- 5.15%); assay type: functional, Trabecula
[24] = test system: Rattus norvegicus; experiment: Antiosteoporotic activity in glucocorticoid-induced Wistar rat osteoporosis model assessed as trabecula formation surface at 30 mg/kg/day, po administered six times a week for 3 months by fluorescence assay (reference value: 7.82 +/- 2.46%); assay type: functional
[25] = test system: Rattus norvegicus; experiment: Toxicity in glucocorticoid-induced Wistar rat osteoporosis model assessed as effect on total protein level at 30 mg/kg/day, po administered six times a week for 3 months; assay type: organism-based; set-up: route oral; details: in vivo
[26] = test system: Rattus norvegicus; experiment: Antiosteoporotic activity in glucocorticoid-induced Wistar rat osteoporosis model assessed as increase in trabecula thickness at 30 mg/kg/day, po administered six times a week for 3 months by toluidine blue staining-based light microscopic analysis relative to dexamethasone; assay type: functional, organism-based
[27] = test system: Rattus norvegicus; experiment: Toxicity in glucocorticoid-induced Wistar rat osteoporosis model assessed as neutrophilic granulocytes level at 30 mg/kg/day, po administered six times a week for 3 months (reference value: 31.95 +/- 8.33%); assay type: organism-based; set-up: route oral; details: in vivo
[28] = test system: Rattus norvegicus; experiment: Toxicity in glucocorticoid-induced Wistar rat osteoporosis model assessed as effect on glucose level at 30 mg/kg/day, po administered six times a week for 3 months; assay type: organism-based; set-up: route oral; details: in vivo
[29] = test system: Rattus norvegicus; experiment: Toxicity in glucocorticoid-induced Wistar rat osteoporosis model assessed as effect on red blood cell specific volume at 30 mg/kg/day, po administered six times a week for 3 months; assay type: organism-based; set-up: route oral; details: in vivo
[30] = test system: Rattus norvegicus; experiment: Toxicity in glucocorticoid-induced Wistar rat osteoporosis model assessed as effect on red blood cells at 30 mg/kg/day, po administered six times a week for 3 months; assay type: organism-based; set-up: route oral; details: in vivo
[31] = test system: Rattus norvegicus; experiment: Toxicity in glucocorticoid-induced Wistar rat osteoporosis model assessed as effect on creatinine level at 30 mg/kg/day, po administered six times a week for 3 months; assay type: organism-based; set-up: route oral; details: in vivo
[32] = test system: Mus musculus; experiment: Acute toxicity in Kunming mouse assessed as behavioral changes at 700 mg/kg, po administered for 3 days measured during compound dosing and following 14 days; assay type: organism-based; set-up: dose 700 mg/kg, route oral; details: in vivo, 336 h
[33] = test system: Rattus norvegicus; experiment: Toxicity in glucocorticoid-induced Wistar rat osteoporosis model assessed as lymph level at 30 mg/kg/day, po administered six times a week for 3 months (reference value: 50.35 +/- 12.96%); assay type: organism-based; set-up: route oral; details: in vivo
[34] = Acute toxicity in po dosed Kunming mouse administered for 3 days measured during compound dosing and following 14 days; assay type: organism-based; details: in vivo
[35] = test system: Rattus norvegicus; experiment: Toxicity in glucocorticoid-induced Wistar rat osteoporosis model assessed as white blood cells at 30 mg/kg/day, po administered six times a week for 3 months (reference value: 6.28 +/- 2.78 x 10^9/L); assay type: organism-based; set-up: route oral; details: in vivo
[36] = test system: Rattus norvegicus; experiment: Toxicity in glucocorticoid-induced Wistar rat osteoporosis model assessed as effect on red blood cell distribution width at 30 mg/kg/day, po administered six times a week for 3 months; assay type: organism-based; set-up: route oral; details: in vivo
[37] = test system: Rattus norvegicus; experiment: Antiosteoporotic activity in glucocorticoid-induced Wistar rat osteoporosis model assessed as increase in trabecula area at 30 mg/kg/day, po administered six times a week for 3 months by toluidine blue staining-based light microscopic analysis relative to dexamethasone; assay type: functional, organism-based
[38] = test system: Rattus norvegicus; experiment: Toxicity in glucocorticoid-induced Wistar rat osteoporosis model assessed as triglycerides level at 30 mg/kg/day, po administered six times a week for 3 months (reference value: 1.13 +/- 0.69 mmol/L); assay type: organism-based; set-up: route oral; details: in vivo
[39] = test system: Rattus norvegicus; experiment: Toxicity in glucocorticoid-induced Wistar rat osteoporosis model assessed as effect on mean corpuscular hemoglobin concentration at 30 mg/kg/day, po administered six times a week for 3 months; assay type: organism-based; set-up: route oral; details: in vivo
[40] = test system: Rattus norvegicus; experiment: Toxicity in glucocorticoid-induced Wistar rat osteoporosis model assessed as effect on mean corpuscular volume at 30 mg/kg/day, po administered six times a week for 3 months; assay type: organism-based; set-up: route oral; details: in vivo
[41] = test system: Rattus norvegicus; experiment: Antiosteoporotic activity in glucocorticoid-induced Wistar rat osteoporosis model assessed as increase in trabecula connectivity at 30 mg/kg/day, po administered six times a week for 3 months by toluidine blue staining-based light microscopic analysis relative to dexamethasone; assay type: functional, organism-based
[42] = test system: Rattus norvegicus; experiment: Toxicity in glucocorticoid-induced Wistar rat osteoporosis model assessed as aspartate transaminase level at 30 mg/kg/day, po administered six times a week for 3 months (reference value: 177.55 +/- 116.98 U/L); assay type: organism-based; set-up: route oral; details: in vivo
[43] = test system: Rattus norvegicus; experiment: Toxicity in glucocorticoid-induced Wistar rat osteoporosis model assessed as effect on total bilirubin level at 30 mg/kg/day, po administered six times a week for 3 months; assay type: organism-based; set-up: route oral; details: in vivo

`CC[C@H](C)C(=O)O[C@H]1C[C@@H](C)C=C2C=C[C@H](C)[C@H](CC[C@@H]3C[C@@H](O)CC(=O)O3)[C@H]21` showed an Activity [1] of 20.9%.

`C[C@@H]1C[C@H]2[C@@H]3CCC4=CC(=O)C=C[C@]4(C)[C@@]3(F)[C@@H](O)C[C@]2(C)[C@@]1(O)C(=O)CO` [DEXAMETHASONE] gave an Activity [2] of 25.77%, an Activity [3] of 6.58 ×10⁹ /L and an Activity [4] of 4.49%. For the same compound, the Activity [5] was 53.03%, the Activity [6] was 213 U/L and the Activity [7] was 63.64 U/L. The Activity [8] was “inactive”, the Activity [9] was 18.46% and the Activity [10] was 1.63 mmol/L. It also gave an Activity [11] of 11.8% and an Activity [12] of 0.76 micrometer/day.

With `CCOC(=O)c1cc2ccc(C(=O)OC)cc2s1` the Activity [13] was “Non-toxic”, the Activity [14] was “Active” and the Activity [15] was “Non-toxic”. The Activity [16] was 26.25 U/L, the Activity [17] was 1.13 micrometer/day and the Activity [18] was “Non-toxic”. For the same compound, the Activity [19] was “Non-toxic”, the Activity [20] was 8.92% and the Activity [21] was 123%. The Activity [22] was “Non-toxic”, the Activity [23] was 28.61% and the Activity [24] was 6.69%. For the same compound, the Activity [25] was “Non-toxic”, the Activity [26] was “Active” and the Activity [27] was 40.03%. For the same compound, the Activity [28] was “Non-toxic”, the Activity [29] was “Non-toxic” and the Activity [30] was “Non-toxic”. The Activity [31] was “Non-toxic”, the Activity [32] was “Non-toxic” and the Activity [33] was 46.39%. For the same compound, the LD50 at 336 h [34] was greater than 700 mg/kg, the Activity [35] was 3.03 ×10⁹ /L and the Activity [36] was “Non-toxic”. The Activity [37] was “Active”, the Activity [38] was 0.36 mmol/L and the Activity [39] was “Non-toxic”. For the same compound, the Activity [40] was “Non-toxic”, the Activity [41] was “Active” and the Activity [42] was 124.42 U/L. For the same compound, the Activity [43] was “Non-toxic”.
